Laboratory results: US20240398817A1, “CARDIO- AND RENOSAFE ANTIDIABETIC THERAPY” (priority 2018, published 2024)

System: patients with type 2 diabetes at high vascular risk
Experiment: Cardiovascular and Renal Outcomes Trial: linagliptin 5 mg once daily vs placebo on top of standard of care
Format: in vivo
Conditions: for 3P-MACE: hazard ratio (95% CI) vs placebo: Cox regression
Experimental: The effect of linagliptin on cardiovascular risk in adult patients with type 2 diabetes mellitus and with increased CV risk evidenced by a history of established macrovascular or renal disease (e.g. as defined herein) was evaluated in a multi-center, multi-national, randomized, double-blind parallel group trial. The trial compared the risk of experiencing a major adverse cardiovascular event (MACE) between linagliptin and placebo when these were added to and used concomitantly with standard of care treatments for diabetes (HbA1c), cardiovascular risk factors and renal disease.
The primary endpoint in this trial was the time to first occurrence of three point (3P) MACE. A major adverse cardiac event was defined as a cardiovascular death or a nonfatal myocardial infarction (MI) or a nonfatal stroke. The statistical analysis plan tested for non-inferiority for the occurrence of (3P) MACE. […] The secondary endpoint was a renal composite, defined as renal death or sustained end stage renal disease or sustained decrease of 40% or more in eGFR.
Type 2 diabetes patient with insufficient glycemic control (naïve or pre-treated with any antidiabetic background medication, excluding treatment with GLP-1 receptor agonists, DPP-4inhibitors or SGLT-2 inhibitors if ≥consecutive 7 days, e.g. having HbA1c 6.5-10%), and high risk of cardiovascular events, e.g. defined by: • albuminuria (micro or macro) and previous macrovascular disease: e.g. defined according to Condition I as indicated below; • and/or • impaired renal function: e.g. as defined according to Condition II as indicated below;
Background and aims: People with type 2 diabetes (T2D) are at increased risk for hospitalization for heart failure (hHF), particularly in the setting of concomitant cardiovascular (CV) and/or kidney disease. […] Here we present analyses of HF outcomes with the DPP-4 inhibitor linagliptin (LINA) vs. placebo (PBO) from a Cardiovascular and Renal Outcomes Trial assessing cardiovascular safety and renal microvascular outcome in patients with type 2 diabetes at high vascular risk, a large CV outcomes trial that enrolled participants with T2D at high risk for hHF due to concomitant CV and/or chronic kidney disease. Materials and methods: People with T2D and concomitant CV and/or kidney disease were randomized to receive LINA 5 mg, or PBO once daily (1:1), on top of standard of care. All hHF, CV outcomes, and deaths were centrally adjudicated, with individual and composite HF-related outcomes analyses comparing LINA vs. placebo. Investigator-reported HF-related adverse events, whether or not confirmed by adjudication, were also analyzed. A Cox proportional hazards model adjusting for region and history of HF was used for analyses of first events. Recurrent hHF events were analyzed using a negative binomial model.
Methods: The present Cardiovascular and Renal Outcomes Trial randomized people with T2D and i) concomitant CV disease with UACR >30 mg/g or ii) prevalent CKD (i.e. GFR <45 ml/min/1.73m2 and/or UACR >200 mg/g) to receive the DPP-4 inhibitor linagliptin (5 mg) or placebo once daily in a double-blind fashion. The primary CV endpoint was 3P-MACE, with a key secondary kidney endpoint (adjudicated ESKD, renal death, or sustained ≥40% decrease in eGFR from baseline) and other renal outcomes (including albuminuria and eGFR slope) also assessed. Subgroups were assessed by baseline kidney function (eGFR ≥/<45 ml/min/1.73m2and eGFR ≥/<30, 45 or 60 ml/min/1.73m2).
Adults with type 2 diabetes, HbA1c 6.5-10.0% inclusive, and high CV risk were eligible for inclusion. […] Macrovascular disease eligibility criteria was based on documented and confirmed history of myocardial infarction, coronary artery disease, stroke, carotid artery disease, or peripheral artery disease. Participants with end-stage kidney disease (ESKD), defined as eGFR <15 or requiring maintenance dialysis, were excluded.

[1] = all patients, listed as Lingagliptin
[2] = all patients, listed as linagliptin
[3] = both, human, in vivo, 5 mg, 1.9 years
[4] = eGFR ≥30 to <45 mL/min/1.73 m^2

In the case of CC#CCn1c(N2CCC[C@@H](N)C2)nc2c1c(=O)n(Cc1nc(C)c3ccccc3n1)c(=O)n2C [Linagliptin, 1-[(4-methyl-quinazolin-2-yl)methyl]-3-methyl-7-(2-butyn-1-yl)-8-(3-(R)-amino-piperidin-1-yl)-xanthine], the “3P-MACE: rate/100 patient-years” value (all patients) is reported as 4.69 per 100 patient-years, the “All-cause death: rate per 100 person-years” value (all patients) is reported as 4.69 per 100 person-years and the “All-cause mortality: incidence rate per 1000 PY” value (all patients) is reported as 46.9 per 1000 patient years. The “All-cause mortality: number of subjects” value (all patients) was 367, the “Hospitalization for heart failure: incidence rate/1000 patient-years” value (all patients) was 27.7 per 1000 patient years and the “Hospitalization for heart failure: number of patients” value (all patients) was 209. The “Hospitalization for heart failure: rate/100 patient-years” value (all patients) was 2.77 per 100 patient-years, the “Renal composite (40% eGFR): incidence rate per 1000 PY” value (all patients) was 48.9 per 1000 patient years and the “Renal composite (40% eGFR): rate/100 patient-years” value (all patients) was 4.89 per 100 patient-years. The “Renal composite (renal death, sustained ESRD, sustained decrease of 40% or more in eGFR): number of subjects” value (all patients) was 327, the “Renal death or sustained ESKD: number of patients” value (all patients) was 136 and the “Renal death or sustained ESKD: patients, %” value (all patients) was “(3.9) %”. For the same molecule, the “Renal death or sustained ESKD: rate/1000 patient-years” value (all patients) was 17.8 per 1000 patient years, the “Renal death, or sustained ESKD: rate/100 patient-years” value (all patients) was 1.78 per 100 patient-years and the “Renal death, sustained ESKD, or sustained ≥ doubling of se-creatinine from baseline: n” value (all patients) was 219. For the same molecule, the “Renal death, sustained ESKD, or ≥ doubling of se-creatinine: %” value (from here on “Renal death … of se-creatinine: %”) (all patients) was “(6.3) %”, the “Renal death, sustained ESKD, or ≥ doubling of se-creatinine: rate/100 patient-years” value (all patients) was 3.21 per 100 patient-years and the “3P-MACE: hazard ratio (95% CI) vs placebo” value (all patients) was 1.02. The “3P-MACE: hazard ratio (95% CI) vs placebo” value [1] was 1.02 (0.89. 1.17), the “3P-MACE (CV death, non-fatal MI, non-fatal stroke): number of subjects with event” value (all patients, n = 3494) was 434 and the “Hospitalization for heart failure: hazard ratio (95% CI) vs placebo” value (all patients, listed as LINA) was 0.90. The “Renal composite (40% eGFR): hazard ratio (CI) vs placebo” value (all patients, listed as LINA) was 1.04, the “3P-MACE: subjects with event, %” value [1] was 12.4% and the “Renal composite (40% eGFR): hazard ratio (CI) vs placebo” value [1] was 1.04 (0.89, 1.22). The “Renal composite (40% eGFR): subjects, %” value [1] was 9.4%, the “3P-MACE: rate/100 patient-years” value [2] was 5.77 per 100 patient-years and the “3P-MACE: subjects with event, %” value [2] was 12.4%. For the same molecule, the “All-cause mortality: hazard ratio (95% CI) vs placebo” value [2] was 0.98, the “All-cause mortality: subjects, %” value [2] was 10.5% and the “Hospitalization for heart failure: hazard ratio (95% CI) vs placebo” value [2] was 0.90. For the same molecule, the “Hospitalization for heart failure: patients, %” value [2] was 6.0%, the “Renal composite (40% eGFR): hazard ratio (CI) vs placebo” value [2] was 1.04 and the “Renal composite (40% eGFR): subjects, %” value [2] was 9.4%. The “Renal death or sustained ESKD: hazard ratio (95% CI) vs placebo” value [2] was 0.87, the “Renal death or sustained ESKD: patients, %” value [2] was 3.9% and the “Fatal cases of pancreatitis: %” value [3] was 0.1%. For the same molecule, the “Fatal cases of pancreatitis: n” value [3] was 2, the “3-point MACE: hazard ratio vs placebo” value (eGFR <30 mL/min/1.73 m^2) was 0.97 and the “3-point MACE: patients with event/patients analyzed” value (eGFR <30 mL/min/1.73 m^2) was 101/516. For the same molecule, the “Key secondary kidney outcome: hazard ratio vs placebo” value (eGFR <30 mL/min/1.73 m^2) was 1.05, the “Key secondary kidney outcome: patients with event/patients analyzed” value (eGFR <30 mL/min/1.73 m^2) was 133/516 and the “3P-MACE: %” value (eGFR < 45 (n = 3000)) was “(16.6) %”. For the same molecule, the “3P-MACE: HR (95% CI) vs placebo” value (eGFR < 45 (n = 3000)) was 1.02 (0.85, 1.21), the “3P-MACE: n” value (eGFR < 45 (n = 3000)) was 250 and the “3P-MACE: rate/100 patient-years” value (eGFR < 45 (n = 3000)) was 7.61 per 100 patient-years. The “Hospitalized heart failure: %” value (eGFR < 45 (n = 3000)) was “(8.9) %”, the “Hospitalized heart failure: HR (95% CI) vs placebo” value (eGFR < 45 (n = 3000)) was 0.87 (0.69, 1.10) and the “Hospitalized heart failure: n” value (eGFR < 45 (n = 3000)) was 135. For the same molecule, the “Hospitalized heart failure: rate/100 patient-years” value (eGFR < 45 (n = 3000)) was 4.13 per 100 patient-years, the “Key secondary kidney endpoint: %” value (eGFR < 45 (n = 3000)) was “(14.7) %” and the “Key secondary kidney endpoint: HR (95% CI) vs placebo” value (eGFR < 45 (n = 3000)) was 0.97 (0.80, 1.17). For the same molecule, the “Key secondary kidney endpoint: n” value (eGFR < 45 (n = 3000)) was 222, the “Key secondary kidney endpoint: rate/100 patient-years” value (eGFR < 45 (n = 3000)) was 7.83 per 100 patient-years and the “Renal death, or sustained ESKD: %” value (eGFR < 45 (n = 3000)) was “(8.2) %”. The “Renal death, or sustained ESKD: HR (95% CI) vs placebo” value (eGFR < 45 (n = 3000)) was 0.82 (0.64, 1.04), the “Renal death, or sustained ESKD: n” value (eGFR < 45 (n = 3000)) was 124 and the “Renal death, or sustained ESKD: rate/100 patient-years” value (eGFR < 45 (n = 3000)) was 3.78 per 100 patient-years. The “Renal death … of se-creatinine: %” value (eGFR < 45 (n = 3000)) was “(10.9) %”, the “Renal death, sustained ESKD, or ≥ doubling of se-creatinine: HR (95% CI) vs placebo” value (eGFR < 45 (n = 3000)) was 0.87 (0.70, 1.07) and the “Renal death, sustained ESKD, or ≥ doubling of se-creatinine: n” value (eGFR < 45 (n = 3000)) was 165. The “Renal death, sustained ESKD, or ≥ doubling of se-creatinine: rate/100 patient-years” value (eGFR < 45 (n = 3000)) was 5.69 per 100 patient-years, the “Risk of composite microvascular outcome 1 vs placebo, in words” value (eGFR decrease 50%) was “significantly reduced” and the “Risk of composite microvascular outcome 2 and 3 vs placebo, in words” value (eGFR decrease of 40% and 30%) was “also significantly reduced”. For the same molecule, the “3-point MACE: hazard ratio vs placebo” value [4] was 1.07, the “3-point MACE: patients with event/patients analyzed” value [4] was 149/994 and the “Key secondary kidney outcome: hazard ratio vs placebo” value [4] was 0.95. For the same molecule, the “Key secondary kidney outcome: patients with event/patients analyzed” value [4] was 89/994, the “3P-MACE: %” value (eGFR ≥ 45 (n = 3979)) was “(9.3) %” and the “3P-MACE: HR (95% CI) vs placebo” value (eGFR ≥ 45 (n = 3979)) was 1.03 (0.84, 1.26). For the same molecule, the “3P-MACE: n” value (eGFR ≥ 45 (n = 3979)) was 184, the “3P-MACE: rate/100 patient-years” value (eGFR ≥ 45 (n = 3979)) was 4.34 per 100 patient-years and the “Hospitalized heart failure: %” value (eGFR ≥ 45 (n = 3979)) was “(3.7) %”. The “Hospitalized heart failure: HR (95% CI) vs placebo” value (eGFR ≥ 45 (n = 3979)) was 0.97 (0.70, 1.34), the “Hospitalized heart failure: n” value (eGFR ≥ 45 (n = 3979)) was 74 and the “Hospitalized heart failure: rate/100 patient-years” value (eGFR ≥ 45 (n = 3979)) was 1.73 per 100 patient-years. The “Key secondary kidney endpoint: %” value (eGFR ≥ 45 (n = 3979)) was “(5.3) %”, the “Key secondary kidney endpoint: HR (95% CI) vs placebo” value (eGFR ≥ 45 (n = 3979)) was 1.19 (0.89, 1.58) and the “Key secondary kidney endpoint: n” value (eGFR ≥ 45 (n = 3979)) was 105. For the same molecule, the “Key secondary kidney endpoint: rate/100 patient-years” value (eGFR ≥ 45 (n = 3979)) was 2.72 per 100 patient-years, the “Renal death, or sustained ESKD: %” value (eGFR ≥ 45 (n = 3979)) was “(0.6) %” and the “Renal death, or sustained ESKD: HR (95% CI) vs placebo” value (eGFR ≥ 45 (n = 3979)) was 1.50 (0.61, 3.67). For the same molecule, the “Renal death, or sustained ESKD: n” value (eGFR ≥ 45 (n = 3979)) was 12, the “Renal death, or sustained ESKD: rate/100 patient-years” value (eGFR ≥ 45 (n = 3979)) was 0.28 per 100 patient-years and the “Renal death … of se-creatinine: %” value (eGFR ≥ 45 (n = 3979)) was “(2.7) %”. The “Renal death, sustained ESKD, or ≥ doubling of se-creatinine: HR (95% CI) vs placebo” value (eGFR ≥ 45 (n = 3979)) was 1.08 (0.73, 1.59).
